Measurements taken from patent publication US20250195660A1, “INACTIVATING BACTERIA WITH ELECTRIC PULSES AND ANTIBIOTICS” (Purdue Research Foundation, priority 2018, published 2025).

Legend:
Assay type in all cases: cell-based
[1] = tested on: carbapenem-resistant Escherichia coli (ATCC BA-2452, NDM-1 positive); assay: Inactivation of carbapenem-resistant E. coli by 300 ns electric pulses and/or antibiotics (CFU plating); settings: drug alone, 2 μg/mL or 20 μg/mL, no EPs
Source text: (§1) Except for rifampicin, the five other antibiotics in these examples primarily target gram-positive bacteria and are largely ineffective or not used against gram-negative bacteria in a clinical setting.
(§2) A Blumlein pulsed generator consisting of two lines comprised of twelve 2000 pF capacitors connected by inductors produced 300 ns EPs with rise-times of 30 ns and fall-times of 35 ns at a repetition frequency of 1 Hz (12). The EPs were applied to a standard 2 mm gap electroporation cuvette (Dot Scientific R) filled with a solution containing the microorganisms. Used was a Luria broth of 0.5% salinity (5 grams of NaCl/Liter) for the solution to electrically match the resistance of the sample with the impedance of the pulse generator (11Ω) to prevent signal reflection. The voltage measurements were taken using a LeCroy PPE 20 kV high voltage probe with a 1000:1 attenuation recorded by a TeleDyne LeCroy® Waverunner 6 Zi Oscilloscope with a bandwidth of 4 GHZ.
(§3) The gram-negative strains included a carbapenem-resistant Escherichia coli (ATCC® BA-2452TM, New Delhi metallo-beta-lactamase NDM-1 positive.), Klebsiella pneumoniae (ATCC® BAA-2146TM NDM-I positive), and a gentamicin, streptomycin and sulfonamide resistant Pseudomonas aeruginosa (BEI Resources NR-31040). Assessed was the gram-positive strain of methicillin resistant Staphylococcus aureus (USA300-0114 strain), which is also resistant to erythromycin and tetracycline. Samples were cultured in Luria broth (LB Broth Lennox, powder microbial growth medium, SIGMA-ALDRICH®) by taking 25 mL of broth in a 50 mL sterile conical tube and incubating in a shaker for 16 h at 37° C. Samples were diluted 50% by adding 25 mL media to the incubated sample as we plated controls for each experiment and condition.
(§4) Samples were treated in 2 mm gap cuvettes containing 365 μL of sample between the electrodes, with bio-grade mineral oil added on top of the electrode plates to prevent arcing.
(§5) To establish a common baseline for comparing different NSEP parameters, we fixed the energy density U delivered to the cuvettes according to Formula (1) (above). For 300 ns EPs, 500 EPs at 20 kV/cm and 222 EPs at 30 kV/cm delivered the same energy to the sample.
(§6) Tissue culture Petri dishes from VWR R (15 cm diameter, 10 mm height) were utilized for plating. Each plate was covered with 15 mL of Luria broth (Agar, microbiology tested powder, SIGMA-ALDRICH®), which was prepared by adding 20 g of LB Lennox (SIGMA-ALDRICH) and 15 g/L of agar to water prior to being autoclaved. The salinity of the agar was the same as the LB (0.5% NaCl) to minimize additional environmental stressors on the bacteria.
(§7) Removed was 20 μL from each cuvette and added to 180 μL of PBS in a 96-well dish in triplicate. Each well was then diluted by a ratio of 10:1 five additional times by taking 20 μL of the diluted sample into subsequent wells using multi-channel pipettes (using fresh tips for each dilution). Plated were the six dilutions of each sample two times each by adding 4 μL from each well onto the Petri dish using a multi-channel pipette, which allowed the plating of all three replicates on the same plate to achieve n=6. These plates were then cultured overnight in an incubator at 37° C., and counted the next day.

[2] = tested on: gentamicin, streptomycin and sulfonamide resistant Pseudomonas aeruginosa (BEI Resources NR-31040); assay: Inactivation of P. aeruginosa by 300 ns electric pulses and/or antibiotics (CFU plating); settings: for additional inactivation of P. aeruginosa: 20 kV/cm NSEPs + 2 μg/mL or 20 μg/mL
Source text: as §1, §2, §3, §4, §5, §6, §7

[3] = tested on: Klebsiella pneumoniae (ATCC BAA-2146 NDM-I positive); assay: Inactivation of K. pneumoniae by 300 ns electric pulses and/or antibiotics (CFU plating)
Source text: as §1, §2, §3, §4, §5, §6, §7

[4] = tested on: methicillin resistant Staphylococcus aureus (USA300-0114 strain); assay: Inactivation of MRSA by 300 ns electric pulses and/or antibiotics (CFU plating)
Source text: as §1, §2
as §3, with “condition. […]” for “condition.”
Removed was 20 μL from each cuvette and added to 180 μL of PBS in a 96-well dish in triplicate. […] These plates were then cultured overnight in an incubator at 37° C., and counted the next day.

CC[C@H]1OC(=O)[C@H](C)[C@@H](O[C@H]2C[C@@](C)(OC)[C@@H](O)[C@H](C)O2)[C@H](C)[C@@H](O[C@@H]2O[C@H](C)C[C@H](N(C)C)[C@H]2O)[C@](C)(O)C[C@@H](C)C(=O)[C@H](C)[C@@H](O)[C@]1(C)O [erythromycin] was tested, and the “change in E. coli population” value [1] was “induced changes” and the “additional inactivation of P. aeruginosa” value [2] was “no additional inactivation”.

In the case of CC(=O)O[C@H]1C[C@@]2(C)[C@@H](C[C@@H](O)[C@H]3[C@@]4(C)CC[C@@H](O)[C@@H](C)[C@@H]4CC[C@@]32C)/C1=C(\CCC=C(C)C)C(=O)O [fusidic acid], the “change in E. coli population” value [1] is reported as “induced changes”.

In the case of CC(=O)NC[C@H]1CN(c2ccc(N3CCOCC3)c(F)c2)C(=O)O1 [linezolid], the “change in E. coli population” value [1] is reported as “induced changes”, the “synergy (FIG. 11B legend)” value ([2]; 20 kV/cm EPs + 20 μg/mL) is reported as “approximately 2 log” and the “additional inactivation of P. aeruginosa” value [2] is reported as “no additional inactivation”. The “log reduction of K. pneumoniae / improvement over the NSEPs” value ([3]; 30 kV/cm NSEPs + 20 μg/mL) was “did not induce a statistically significant improvement”.

C/C(=C\C(=O)OCCCCCCCCC(=O)O)C[C@@H]1OC[C@H](C[C@@H]2O[C@H]2[C@@H](C)[C@H](C)O)[C@@H](O)[C@H]1O [mupirocin] was tested, and the “change in E. coli population” value [1] was “induced changes”, the “synergy (synergistic inactivation), MRSA” value ([4]; 20 μg/mL + 30 kV/cm EPs) was “approximately 1.5 log” and the “MRSA 300 inactivation compared to using only the NSEPs” value ([4]; 20 μg/mL + 30 kV/cm NSEPs) was “improvement”. The “additional inactivation of P. aeruginosa” value [2] was “no additional inactivation”, the “inactivation of K. pneumoniae vs NSEPs” value ([3]; 20 kV/cm NSEPs + 2 μg/mL) was “slight increase” and the “inactivation of K. pneumoniae vs NSEPs” value ([3]; 20 kV/cm NSEPs + 20 μg/mL) was “an increase”. For the same molecule, the “additional inactivation compared to NSEPs alone, K. pneumoniae” value ([3]; 30 kV/cm NSEPs + 2 μg/mL) was 1 log.

With CN[C@H](CC(C)C)C(=O)N[C@H]1C(=O)N[C@@H](CC(N)=O)C(=O)N[C@H]2C(=O)N[C@H]3C(=O)N[C@H](C(=O)N[C@H](C(=O)O)c4cc(O)cc(O)c4-c4cc3ccc4O)[C@H](O)c3ccc(c(Cl)c3)Oc3cc2cc(c3O[C@@H]2O[C@H](CO)[C@@H](O)[C@H](O)[C@H]2O[C@H]2C[C@](C)(N)[C@H](O)[C@H](C)O2)Oc2ccc(cc2Cl)[C@H]1O [vancomycin] the “change in E. coli population” value [1] was “induced changes”, the “additional inactivation of P. aeruginosa” value [2] was “no additional inactivation” and the “log reduction of P. aeruginosa” value ([2]; 30 kV/cm NSEPs + 2 μg/mL) was “up to 2 log”. The “synergy, P. aeruginosa” value ([2]; 30 kV/cm NSEPs + 2 μg/mL) was “synergy”, the “additional inactivation compared to NSEPs alone, K. pneumoniae” value ([3]; 30 kV/cm NSEPs + 2 μg/mL) was 1 log and the “log reduction of K. pneumoniae” value ([3]; 30 kV/cm NSEPs + 2 μg/mL) was 5 log.
